Experimental data: PMC9090415, “Discovery of small molecule inhibitors of Plasmodium falciparum apicoplast DNA polymerase” (Journal of Enzyme Inhibition and Medicinal Chemistry, 2022)

Molecular target: P. falciparum apicoplast DNA polymerase (Pf-apPOL) (Plasmodium falciparum, UniProt Q8ILY1)
Assay: Fluorescence-based high-throughput DNA polymerase assay (molecular beacon), primary screen and dose-response
Type: biochemical
Experimental: The HT assay employs a molecular beacon, a stem-loop DNA template with a Cy3 dye and the Black Hole Quencher on the 3′ and 5′ ends of the DNA, respectively. Pf-apPOL concentration is based on a calculated absorptivity of ε280 = 56750 M^−1 cm^−1. Reactions were carried out at 25 °C, using Corning 3575 […] (well-volume, 20 µL). Assays testing for compound inhibition composed of reaction buffer (pH 7.9 in 50 mM potassium acetate, 20 mM Tris-acetate and 10 mM magnesium acetate), Pf-apPOL (20 nM), DNA substrate (20 nM), dNTPs (6 µM), and compound (10 µM in DMSO). The DNA and nucleotide substrates (dNTPs) were at concentrations of 20 nM and 6 µM, respectively, in the assay. Pf-apPOL was incubated in the reaction buffer with dNTPs and the compound of interest (10 µM, in the assay) at 25 °C for 10 min. The DNA substrate was then added and the reaction was allowed to proceed for 90 min at 25 °C.
Each assay plate contained 16 negative controls (no Pf-apPOL, DMSO present) and 16 positive controls (Pf-apPOL present, no DMSO). The fluorescence of each well was determined using a BioTek Synergy Neo fluorescence plate reader using excitation and emission wavelengths of 555 and 570 nm, respectively.
In the above, Min is the average of fluorescence emission of the negative controls (substrate only), Max the average fluorescence emission from the positive controls (enzyme + substrate), and Test the emission from the assays in the presence of compounds (enzyme + compound + substrates). […] […] The IC50 of each compound was determined using Equation (2): (2) IC50= Vmax/(1+ (I/IC50)^n)
In the above, n measures cooperativity, with n > 1 indicating synergistic binding of more than a single molecule of the compound.
To identify apPOL inhibitors we utilised our previously developed high-throughput DNA polymerase assay. The HT assay is based on a molecular beacon DNA template that forms a stem-loop with a Cy3 dye and the Black Hole Quencher on the 3′ and 5′ ends of the DNA, respectively. DNA polymerase activity extends an annealed primer through the stem region, displacing the fluorophore from the quencher, thereby increasing its fluorescence (Figure 1(A)). The assay accurately recapitulates the kinetic behaviour of apPOL, as measured through more conventional low-throughput gel-based assays. The Z′ factor for the assay described here was 0.9 across all plates (data not shown).
Figure 1. High-throughput screening. (A) The fluorescent-based DNA polymerase assay used to screen the compound libraries. The DNA template strand is a hairpin loop with a primer annealed to the loop. The 3’ end of the primer is 11 bases away from the 6 bp duplex. Strand displacement activity of the DNA polymerase separates the Cy3 dye from the Black hole quencher leading to an increase in fluorescent signal. (B) The high-throughput assay workflow. The DNA polymerase is incubated with […] compound for 10 min prior to addition of the hairpin substrate. The reaction is quenched at 3 different time points and the fluorescent signal is measured and % inhibition is determined using the provided equation.

Chain of P. falciparum apicoplast DNA polymerase (Pf-apPOL) (Q8ILY1 entry or part of it): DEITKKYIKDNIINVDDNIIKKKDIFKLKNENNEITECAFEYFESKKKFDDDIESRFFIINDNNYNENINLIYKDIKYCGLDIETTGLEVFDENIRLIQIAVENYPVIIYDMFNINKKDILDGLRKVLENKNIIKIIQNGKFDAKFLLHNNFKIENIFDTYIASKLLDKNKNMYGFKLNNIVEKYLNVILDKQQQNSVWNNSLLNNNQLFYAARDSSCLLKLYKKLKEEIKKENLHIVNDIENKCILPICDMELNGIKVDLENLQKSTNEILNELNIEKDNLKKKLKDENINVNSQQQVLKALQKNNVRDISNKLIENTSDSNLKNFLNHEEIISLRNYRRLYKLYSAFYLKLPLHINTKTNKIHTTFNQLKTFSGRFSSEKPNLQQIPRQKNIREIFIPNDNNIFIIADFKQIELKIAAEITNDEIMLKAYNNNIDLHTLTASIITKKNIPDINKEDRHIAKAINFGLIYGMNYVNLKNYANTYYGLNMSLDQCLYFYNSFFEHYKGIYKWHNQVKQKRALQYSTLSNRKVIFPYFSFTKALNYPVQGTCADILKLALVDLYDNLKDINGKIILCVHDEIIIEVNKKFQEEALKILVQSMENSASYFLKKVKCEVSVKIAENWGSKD

## N#Cc1c(C2CCCCC2)nc(Sc2ccc(C(F)(F)F)cc2[N+](=O)[O-])[nH]c1=O [Molecule 20, N#Cc1c(=O)[nH]c(nc1C1CCCCC1)Sc1ccc(cc1N(=O)=O)C(F)(F)F]
'DNA Pol' of the 186 hits list (primary screen result); unit not given; 90 min, 10 µM
  DNA Pol: 99
DRC-1; 10'; concentration 2.5
  % inhibition Apo pol 10': 13.479%
DRC-1; 10'; concentration 5
  % inhibition Apo pol 10': 22.3075%
DRC-1; 10'; concentration 10
  % inhibition Apo pol 10': 58.5642%
DRC-1; 10'; concentration 20
  % inhibition Apo pol 10': 88.1341%
DRC-1; 10'; concentration 40
  % inhibition Apo pol 10': 96.8636%
DRC-1; 10'; concentration 80
  % inhibition Apo pol 10': 98.9889%
DRC-1; 90'; concentration 2.5
  % inhibition Apol 90': 11.5568%
DRC-1; 90'; concentration 5
  % inhibition Apol 90': 20.2551%
DRC-1; 90'; concentration 10
  % inhibition Apol 90': 55.7655%
DRC-1; 90'; concentration 20
  % inhibition Apol 90': 84.5767%
DRC-1; 90'; concentration 40
  % inhibition Apol 90': 95.5899%
DRC-1; 90'; concentration 80
  % inhibition Apol 90': 98.5408%
DRC-1; 180'; concentration 2.5
  % inhibition apPOL 180': 4.639%
DRC-1; 180'; concentration 5
  % inhibition apPOL 180': 10.6134%
DRC-1; 180'; concentration 10
  % inhibition apPOL 180': 43.2916%
DRC-1; 180'; concentration 20
  % inhibition apPOL 180': 78.9137%
DRC-1; 180'; concentration 40
  % inhibition apPOL 180': 94.1749%
DRC-1; 180'; concentration 80
  % inhibition apPOL 180': 98.1002%
DRC-2, 5', concentration 20 (unit not given)
  % inhibition Apo pol 5': 55%
DRC-2, 40', concentration 10 (unit not given)
  % inhibition Apol 40': 55%
DRC-2, 90', concentration 40 (unit not given)
  % inhibition ApPOL 90': 77%
DRC-2, 180', concentration 40 (unit not given)
  % inhibition apPOL 180': 77%
DRC-2; 5'; concentration 2.5
  % inhibition Apo pol 5': 3.66%
DRC-2; 5'; concentration 5
  % inhibition Apo pol 5': 11%
DRC-2; 5'; concentration 10
  % inhibition Apo pol 5': 43%
DRC-2; 5'; concentration 20
  % inhibition Apo pol 5': 55%
DRC-2; 5'; concentration 40
  % inhibition Apo pol 5': 60%
DRC-2; 5'; concentration 80
  % inhibition Apo pol 5': 61%
DRC-2; 40'; concentration 2.5
  % inhibition Apol 40': 6.56%
DRC-2; 40'; concentration 5
  % inhibition Apol 40': 16%
DRC-2; 40'; concentration 10
  % inhibition Apol 40': 55%
DRC-2; 40'; concentration 20
  % inhibition Apol 40': 68%
DRC-2; 40'; concentration 40
  % inhibition Apol 40': 75%
DRC-2; 40'; concentration 80
  % inhibition Apol 40': 78%
DRC-2; 90'; concentration 2.5
  % inhibition ApPOL 90': 4.51%
DRC-2; 90'; concentration 5
  % inhibition ApPOL 90': 13%
DRC-2; 90'; concentration 10
  % inhibition ApPOL 90': 54%
DRC-2; 90'; concentration 20
  % inhibition ApPOL 90': 69%
DRC-2; 90'; concentration 40
  % inhibition ApPOL 90': 77%
DRC-2; 90'; concentration 80
  % inhibition ApPOL 90': 82%
DRC-2; 180'; concentration 2.5
  % inhibition apPOL 180': -0.258%
DRC-2; 180'; concentration 5
  % inhibition apPOL 180': 7%
DRC-2; 180'; concentration 10
  % inhibition apPOL 180': 46%
DRC-2; 180'; concentration 20
  % inhibition apPOL 180': 64%
DRC-2; 180'; concentration 40
  % inhibition apPOL 180': 77%
DRC-2; 180'; concentration 80
  % inhibition apPOL 180': 85%
Primary screen value of the library well; unit not given; 90 min, 10 µM
  DNA Pol: 99

## O=C(O)c1nc(-c2ccccc2)nc2c1OCO2 [Molecule 45, OC(=O)c1nc(nc2c1OCO2)c1ccccc1]
DRC-1; concentration 2.5; 10'
  % inhibition Apo pol 10': 6.785%
DRC-1; concentration 2.5; 90'
  % inhibition Apol 90': -0.7182%
DRC-1; concentration 2.5; 180'
  % inhibition apPOL 180': -6.279%
DRC-1; concentration 5; 10'
  % inhibition Apo pol 10': 18.6858%
DRC-1; concentration 5; 90'
  % inhibition Apol 90': 2.776%
DRC-1; concentration 5; 180'
  % inhibition apPOL 180': -4.7971%
DRC-1; concentration 10; 10'
  % inhibition Apo pol 10': 46.4099%
DRC-1; concentration 10; 90'
  % inhibition Apol 90': 22.6615%
DRC-1; concentration 10; 180'
  % inhibition apPOL 180': 10.4504%
DRC-1; concentration 20; 10'
  % inhibition Apo pol 10': 71.5187%
DRC-1; concentration 20; 90'
  % inhibition Apol 90': 46.4112%
DRC-1; concentration 20; 180'
  % inhibition apPOL 180': 26.9983%
DRC-1; concentration 40; 10'
  % inhibition Apo pol 10': 89.2051%
DRC-1; concentration 40; 90'
  % inhibition Apol 90': 75.6472%
DRC-1; concentration 40; 180'
  % inhibition apPOL 180': 64.3043%
DRC-1; concentration 80 (unit not given); 10'
  % inhibition Apo pol 10': 95.8219%
DRC-1; concentration 80; 90'
  % inhibition Apol 90': 92.7909%
DRC-1; concentration 80; 180'
  % inhibition apPOL 180': 90.3482%
DRC-2; 40'; concentration 2.5
  % inhibition Apol 40': 7%
DRC-2; 40'; concentration 10
  % inhibition Apol 40': 34%
DRC-2; 40'; concentration 40
  % inhibition Apol 40': 69%
DRC-2; 90'; concentration 5
  % inhibition ApPOL 90': 7%
DRC-2; 90'; concentration 40
  % inhibition ApPOL 90': 69%
DRC-2; 180'; concentration 20
  % inhibition apPOL 180': 34%
DRC-2; concentration 2.5; 5'
  % inhibition Apo pol 5': 13%
DRC-2; concentration 2.5; 40'
  % inhibition Apol 40': 7%
DRC-2; concentration 2.5; 90'
  % inhibition ApPOL 90': 4%
DRC-2; concentration 2.5; 180'
  % inhibition apPOL 180': -1.61%
DRC-2; concentration 5; 5'
  % inhibition Apo pol 5': 24%
DRC-2; concentration 5; 40'
  % inhibition Apol 40': 14%
DRC-2; concentration 5; 90'
  % inhibition ApPOL 90': 7%
DRC-2; concentration 5; 180'
  % inhibition apPOL 180': -1.28%
DRC-2; concentration 10; 5'
  % inhibition Apo pol 5': 42%
DRC-2; concentration 10; 40'
  % inhibition Apol 40': 34%
DRC-2; concentration 10; 90'
  % inhibition ApPOL 90': 27%
DRC-2; concentration 10; 180'
  % inhibition apPOL 180': 17%
DRC-2; concentration 20; 5'
  % inhibition Apo pol 5': 50%
DRC-2; concentration 20; 40'
  % inhibition Apol 40': 51%
DRC-2; concentration 20; 90'
  % inhibition ApPOL 90': 45%
DRC-2; concentration 20; 180'
  % inhibition apPOL 180': 34%
DRC-2; concentration 40; 5'
  % inhibition Apo pol 5': 58%
DRC-2; concentration 40; 40'
  % inhibition Apol 40': 69%
DRC-2; concentration 40; 90'
  % inhibition ApPOL 90': 69%
DRC-2; concentration 40; 180'
  % inhibition apPOL 180': 68%
DRC-2; concentration 80; 5'
  % inhibition Apo pol 5': 60%
DRC-2; concentration 80; 40'
  % inhibition Apol 40': 77%
DRC-2; concentration 80; 90'
  % inhibition ApPOL 90': 80%
DRC-2; concentration 80; 180'
  % inhibition apPOL 180': 82%
Primary screen value of the 186 hits; unit not given; 90 min, 10 µM
  DNA Pol: 34
Primary screen value; head prints only 'DNA Pol'; 90 min, 10 µM
  DNA Pol: 34
